This assay concerns the target T1, human PKR1 receptors (Homo sapiens, UniProt Q8TCW9).
T1 construct: expressed in transfected cells; host or cells: RBL2H3 cells (rat basophilic leukaemia line) expressing human PKR1
The assay can be described thus: PKR1 antagonist assay: block of PK1-mediated intracellular calcium release (FLIPR Tetra, Calcium 5 dye). The assay is classed as cell-based. The note with it: RBL2H3 cells expressing human PKR1; 10 min pre-incubation, stimulation with PK1 at EC80; calcium fluorescence. Summed up: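 RBL2H3 cells expressing human PKR1, loaded 1 h at 37 °C with Calcium 5 dye plus 1 mM probenecid in HBSS/25 mM HEPES/0.1% BSA, pH 7.4. Compounds (0.32 nM–10 µM final) preincubated 10 min, then PK1 added at EC80; fluorescence read at 525 nm (excitation 485 nm).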

The results in this text go back to patent publication US20130324576A1, “THERAPEUTIC COMPOUNDS” (Takeda Pharmaceutical Company Limited, priority 2012, published 2013).

T1 sequence (Q8TCW9 whole entry): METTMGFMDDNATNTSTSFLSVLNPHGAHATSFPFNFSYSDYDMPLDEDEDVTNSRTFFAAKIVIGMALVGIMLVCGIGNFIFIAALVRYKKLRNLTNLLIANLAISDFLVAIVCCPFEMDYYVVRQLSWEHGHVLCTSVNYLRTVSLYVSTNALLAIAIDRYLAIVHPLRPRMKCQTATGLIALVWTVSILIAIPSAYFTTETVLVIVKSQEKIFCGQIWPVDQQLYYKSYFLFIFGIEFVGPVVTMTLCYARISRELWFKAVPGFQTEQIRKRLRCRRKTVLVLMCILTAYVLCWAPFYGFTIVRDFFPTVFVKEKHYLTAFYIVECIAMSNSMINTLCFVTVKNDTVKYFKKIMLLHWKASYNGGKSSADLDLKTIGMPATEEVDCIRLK

In general, IC50 refers to the concentration that inhibits the measured activity by half. `COc1cc(Cl)cnc1OC1CCN(S(=O)(=O)c2c(C)nn(C)c2C)CC1` [Example 84, 5-Chloro-3-methoxy-2-((1-((1,3,5-trimethyl-1H-pyrazol-4-yl)sulfonyl)piperidin-4-yl)oxy)pyridine]: the IC50 was found to be 0.72 µM. Consider `Cc1n[nH]c(C)c1S(=O)(=O)N1CCC(Oc2ccc(Cl)cc2F)CC1` [Example 35, 4-(4-Chloro-2-fluorophenoxy)-1-(3,5-dimethyl-1H-pyrazole-4-sulfonyl)piperidine], for which the IC50 was 1.1 µM.
